# Laboratory results as given in ChEMBL document CHEMBL1148126, “Triterpenoid constituents of Raulinoa echinata” (J Nat Prod, 2002).
# How the values were obtained:
# [1] = Toxicity in Artemia salina; format: organism-based; settings: in vivo, read-out: LD50 (the source's name)
# Trypanosoma cruzi = test: Antitrypanosomal activity against Trypanosoma cruzi Y trypomastigotes; format: functional, organism-based
SMILES,LC50 [1] [µg/mL],IC50 (Trypanosoma cruzi) [µg/mL]
CNc1ccccc1C(=O)O[C@H]1CC[C@]2(C)[C@H]3CC[C@]45C[C@]4(CC[C@H]5[C@@H]4C[C@H]([C@H](O)C(C)(C)O)O[C@H]4OC)[C@]3(C)[C@H](O)C[C@H]2C1(C)C,> 100,> 1000
CO[C@H]1O[C@@H]([C@H](O)C(C)(C)OC)C[C@H]1[C@@H]1CC[C@]2(C)C3=CC[C@H]4C(C)(C)C(=O)CC[C@]4(C)[C@H]3CC[C@@]12C,> 100,114
CO[C@@H]1O[C@@H]([C@H](O)C(C)(C)OC)C[C@H]1[C@@H]1CC[C@]2(C)C3=CC[C@H]4C(C)(C)C(=O)CC[C@]4(C)[C@H]3CC[C@@]12C,> 100,135
CNc1ccccc1C(=O)O[C@H]1CC[C@]2(C)[C@H]3CC[C@]45C[C@]4(CC[C@H]5[C@@H]4C[C@H]([C@H](O)C(C)(C)O)OC4O)[C@]3(C)[C@H](O)C[C@H]2C1(C)C (stereo partly specified),> 100,> 1000
CNc1ccccc1C(=O)O[C@H]1CC[C@]2(C)[C@H]3CC[C@]45C[C@]4(CC[C@H]5[C@@H]4C[C@H]([C@H](O)C(C)(C)O)O[C@@H]4OC)[C@]3(C)[C@H](O)C[C@H]2C1(C)C,> 100,> 1000
CN(C)c1ccc(C(=C2C=CC(=[N+](C)C)C=C2)c2ccc(N(C)C)cc2)cc1.[Cl-] [GENTIAN VIOLET],,7.5
